Assay results: patent US11883435B2, “Compositions and methods for treating a clinical condition through the use of hematopoietic stem cells” (Indiana University Research and Technology Corporation, priority 2017, dated 2024)

What was measured:
mouse bone marrow HSCs = assay: Number of mouse bone marrow HSCs collected and processed with antioxidants or epigenetic inhibitors (flow cytometry); format: cell-based; settings: collected in ambient air
mouse bone marrow HSC = settings: ambient air (about 21% O2); cited from earlier work
human cord blood HSC = settings: ambient air (about 21% O2); cited from earlier work

Compound: CC(=O)N[C@@H](CS)C(=O)O [NAC, N-Acetyl-Cysteine]
- change in numbers of collected HSCs (mouse bone marrow HSCs; 1 mM NAC): no significant change
- increase in numbers of collected HSCs (mouse bone marrow HSCs; higher dose of NAC (3 mM)): no increase

Compound: O=C1O[C@H]([C@@H](O)CO)C(O)=C1OP(=O)(O)O [AAP, ascorbic acid 2-phosphate]
- increase in numbers of HSC (mouse bone marrow HSCs; AAP alone (0.22 mM)): not AAP alone, significantly increased

Compound: cyclosporine A
- numbers of HSC (mouse bone marrow HSC): increased numbers of HSC
- numbers of HSC (human cord blood HSC): increased numbers of HSC
